Source: patent US5776892A, “Anti-inflammatory peptides” (Curative Health Services, Inc., priority 1994, dated 1998)
“And” between values parts separate entries of the source, which are not always exact repeats. Identical values can stand only once. No end group written: not given here.

Test system: arachidonic acid induced inflammation in mouse ear
Assay: Mouse ear model, arachidonic acid (AA) induced inflammation, ear thickness
Format: in vivo
Description: The anti-inflammatory properties of CT-112 (SEQ. ID NO: 1) were assessed using a standardized assay for anti-inflammatory activity, i.e., the mouse ear model in which arachidonic acid (AA) is used to induce an inflammatory reaction (Young et al., 1984, J. Invest. Dermatol. 82:367-371; Doherty, et al., 1988, J. Invest. Dermatol. 91:298-302).
Female mice (C57BL/6UAF, Charles River Breeding Laboratories, approximately 15-18 g) were obtained and acclimated for 2 weeks prior to use. The animals were approximately 14 weeks old at the start of the study.
To prepare minipumps for implantation, CT-112 (SEQ. ID NO: 1) was dissolved in PBS. The material was loaded into Alzet minipumps set to deliver 0.05 (5 animals), 0.1 (10 animals), 1 (10 animals), or 2.5 (5 animals) mg of CT-112 (SEQ. ID NO: 1) per animal per day. Minipumps for implantation into control animals contained only PBS. As a positive control, one set of 10 mice received 100 mg/kg of phenidone, a potent 5-lipoxygenase inhibitor which acts as an anti-inflammatory agent, 15 min prior to challenge with AA.
For subcutaneous implantation of minipumps, animals were anesthetized with Ketamine/Xylazine. The Ketamine (Aveco Lot #440140) was injected at 80 mg/kg and the Xylazine (Rugby Laboratories Lot #26040-B) at 16 mg/kg and the Alzet pumps were implanted subcutaneously in the dorsothoracic area. Animals were allowed to recover and then housed and given food and water ad libitum for 5 days.
On the sixth day following pump implantation, 0.01 ml of AA was applied to the inner and outer surfaces of the right ear by means of an automatic microliter pipette. One hr following AA application, the mice were sacrificed and ear thickness was measured with a Mitutoyo No. 7300 Gauge Caliper. The left ears were also measured as an internal control.
Mice were implanted with Alzet mini-pumps set to deliver 60 mg/kg/day for either 7, 3, or 1 days. A separate group of 5 mice received 3 intraperitoneal injections of CT-112 (60 mg/kg/injection) at 24, 1 and 0.25 hr prior to AA challenge. CT-112 (SEQ. ID NO: 1) was prepared for injection by dissolving the compound in Dulbecco's PBS to give a final CT-112 (SEQ. ID NO: 1) concentration of 5 mg/ml. The control mice were implanted with Alzet minipumps that delivered PBS for 7 days. The AA challenge was the same as described supra in Example 7.
Administration of CT-112 (SEQ. ID NO: 1) (60 mg/kg/injection) via multiple intraperitoneal injections was performed at the following times prior to AA challenge:
In addition, the effect of a single administration of CT-112 (SEQ. ID NO: 1) (60 mg/kg) by intraperitoneal injection was performed at either 1 or 3 hr prior to AA challenge. Control mice had Alzet minipumps implanted to deliver PBS for 7 days prior to AA challenge. The AA challenge was the same as described supra in Example 7. The results of the multiple dosing regimens and the 1 hr and 3 hr single dosing regimens were compared to the anti-inflammatory activity of CT-112 (SEQ. ID NO: 1) delivered via Alzet minipump set to deliver 60 mg/kg/day for 7 days using 5 animals per treatment.
In a separate experiment, the effect of multiple intraperitoneal injections of CT-112 (SEQ. ID NO: 1) at either 6, 3, 1 and 0.25 hr, or 16, 3, 1 and 0.25 hr prior to AA challenge was assessed. The results of both multi-dosing regimens were compared to both phenidone (100 mg/kg administered 15 min prior to AA challenge) and CT-112 (SEQ. ID NO: 1) administered via Alzet mini-pump (60 mg/kg/day for 7 days). For this latter study, the number of animals receiving the single injection of CT-112 (SEQ. ID NO: 1) was increased from 5 to 10.
Administration to mice of CT-112 (SEQ. ID NO: 1) (60 mg/kg/injection) via multiple subcutaneous injections prior to AA challenge was performed at:
In addition, other mice received only a single subcutaneous injection of CT-112 (SEQ. ID NO: 1) (60 mg/kg) at either 3 or 1 hr prior to AA challenge. […]

[1] = Table VI, single sc 60 mg/kg 1 hr prior to AA
[2] = Table VI, single sc 60 mg/kg 3 hr prior to AA
[3] = Table VII, 3 day pump, 60 mg/kg/day
[4] = Table VII, single ip 3 hr prior to AA
[5] = Table VII, single sc 0.25 hr prior to AA
[6] = Table VII, single sc 1 hr prior to AA
[7] = Table VII, single sc 3 hr prior to AA
[8] = Table VII, single sc 6 hr prior to AA
[9] = Table VIII, 3 day pump, 60 mg/kg/day
[10] = Table VIII, po 200 mg/kg/gavage at 1, 0.25 hr prior to AA
[11] = Table VIII, po 200 mg/kg/gavage at 6, 3, 1, 0.25 hr prior to AA
[12] = Table VIII, single po 200 mg/kg 1 hr prior to AA
[13] = Table VIII, single po 200 mg/kg 3 hr prior to AA
[14] = Table XI, 60 mg/kg/day minipump, 3 days

Q: Which “Thickness Difference (Left-Right)” value (Table VI, sc 60 mg/kg/injection at 6, 3, 1, 0.25 hr prior to AA) does the source give for “TTSQVRPR [CT-112, octapeptide derived from platelet factor 4]” here?
A: 0.00147 ± 0.00041 in

Q: What about the “% Inhibition of Inflammation” value [1] of the same sequence?
A: 71.8%

Q: And the “Thickness Difference (Left-Right)” value [1]?
A: 0.00174 ± 0.00128 in

Q: And the “% Inhibition of Inflammation” value [2]?
A: 65.5%

Q: What about the “Thickness Difference (Left-Right)” value [2] of the same sequence?
A: 0.00213 ± 0.00089 in

Q: And the “% Inhibition of Inflammation” value [3]?
A: 67.0%

Q: And the “Thickness Difference (Left-Right)” value [3]?
A: 0.00127 ± 0.00128 in

Q: What about the “% Inhibition of Inflammation” value [4] of the same sequence?
A: 37.2%

Q: What about the “Thickness Difference (Left-Right)” value [4] of the same sequence?
A: 0.00242 ± 0.00187 in

Q: What about the “% Inhibition of Inflammation” value [5] of the same sequence?
A: 34.7%

Q: What about the “Thickness Difference (Left-Right)” value [5] of the same sequence?
A: 0.00252 ± 0.00128 in

Q: What about the “% Inhibition of Inflammation” value [6] of the same sequence?
A: 44.5%

Q: What about the “Thickness Difference (Left-Right)” value [6] of the same sequence?
A: 0.00214 ± 0.00122 in

Q: What about the “% Inhibition of Inflammation” value [7] of the same sequence?
A: 36.9%

Q: What about the “Thickness Difference (Left-Right)” value [7] of the same sequence?
A: 0.00243 ± 0.00107 in

Q: What about the “% Inhibition of Inflammation” value [8] of the same sequence?
A: 69.6%

Q: What about the “Thickness Difference (Left-Right)” value [8] of the same sequence?
A: 0.00117 ± 0.00066 in

Q: And the “% Inhibition of Inflammation” value [9]?
A: 88% and 88.4%

Q: What about the “Thickness Difference (Left-Right)” value [9] of the same sequence?
A: 0.00058 ± 0.00086 in

Q: And the “% Inhibition of Inflammation” value [10]?
A: 51.9%

Q: What about the “Thickness Difference (Left-Right)” value [10] of the same sequence?
A: 0.00241 ± 0.00124 in

Q: What about the “Thickness Difference (Left-Right)” value (Table VIII, po 200 mg/kg/gavage at 3, 1, 0.25 hr prior to AA) of the same sequence?
A: 0.0028 ± 0.00114 in

Q: And the “% Inhibition of Inflammation” value (Table VIII, po 200 mg/kg/gavage at 3, 1, 0.25 hr prior to AA, 200 mg/kg)?
A: 44% and 44.1%

Q: What about the “% Inhibition of Inflammation” value [11] of the same sequence?
A: 73.3%

Q: And the “Thickness Difference (Left-Right)” value [11]?
A: 0.00134 ± 0.00257 in

Q: And the “% Inhibition of Inflammation” value [12]?
A: 72.3%

Q: What about the “Thickness Difference (Left-Right)” value [12] of the same sequence?
A: 0.00139 ± 0.00122 in

Q: And the “% Inhibition of Inflammation” value [13]?
A: 93.8%

Q: What about the “Thickness Difference (Left-Right)” value [13] of the same sequence?
A: 0.00031 ± 0.00198 in

Q: What about the “% Inhibition of Inflammation” value (Table XI, 6 mg/kg/day minipump, 3 days) of the same sequence?
A: 40.8%

Q: What about the “Thickness Difference (Left-Right)” value (Table XI, 6 mg/kg/day minipump, AA 3 days after implantation) of the same sequence?
A: 0.00381 ± 0.00066 in

Q: And the “% Inhibition of Inflammation” value [14]?
A: 85.2%

Q: And the “Thickness Difference (Left-Right)” value [14]?
A: 0.00095 ± 0.00064 in

Q: And the “Thickness Difference (Left-Right)” value (Table XIII, 60 mg/kg/day via Alzet pump for 24 hr)?
A: 0.00132 ± 0.00086 in

Q: And the “Thickness Difference (Left-Right)” value (Table XIV, 60 mg/kg/day via Alzet pump for 24 hr)?
A: 0.00134 ± 0.00044 in

Q: And the “Thickness Difference (Left-Right)” value (Table XV, 60 mg/kg/day via Alzet pump for 24 hr)?
A: 0.00154 ± 0.00092 in

Q: And the “% Inhibition” value (Table XVI, single 6 mg/kg sc 4 hr prior to AA, ear thickness 1 hr post-challenge)?
A: 64.9%

Q: And the duration of activity (after single subcutaneous injection)?
A: greater than 6 hr

Q: What about the “inhibition of the inflammatory process” value (ip 60 mg/kg/injection, all multi-dosing regimens and the 3 hr single dosing regimen) of the same sequence?
A: approximately 70%

Q: And the reduction in inflammation (multiple ip injections at either 6, 3, 1, 0.25 hr or 16, 3, 1, 0.25 hr prior to AA)?
A: 56-61%

Q: And the “inhibition of the inflammatory process” value (oral 200 mg/kg/gavage, all multi- and single-dosing regimens except 3, 1, 0.25 hr)?
A: 52-94%
